Test results from US7902235B2 (priority 2004, dated 2011).

How the values were obtained:
[1] = tested on: tripeptidyl-peptidase 1 (TPP-I); details: patient-derived LINCL cell line, compound heterozygous Arg208Stop and a rare nonsense mutation; maximal; cited from earlier work

| Molecule | melting point | TPP-I restored, of normal levels [1] |
| --- | --- | --- |
| O=C(NC(=O)c1cccc(-c2noc(-c3ccccc3F)n2)c1)Nc1ccccn1 [Compound 9] | 252 to 254 °C |  |
| CONC(=O)NC(=O)c1cccc(-c2noc(-c3ccccc3F)n2)c1 [Compound 5] | 206 to 207 °C |  |
| O=C(NC(=O)c1cccc(-c2noc(-c3ccccc3F)n2)c1)Nc1ncccn1 [Compound 8] | 247 to 249 °C |  |
| CCOC(=O)NC(=O)c1cccc(-c2noc(-c3ccccc3F)n2)c1 [Compound 2] | 160.5 to 162 °C |  |
| COC(=O)NC(=O)c1cccc(-c2noc(-c3ccccc3F)n2)c1 [Compound 1] | 176 to 177 °C |  |
| O=C(NC(=O)c1cccc(-c2noc(-c3ccccc3F)n2)c1)OC1CCOCC1 [Compound 11] | 177.5 to 179 °C |  |
| O=C(NCCF)NC(=O)c1cccc(-c2noc(-c3ccccc3F)n2)c1 [Compound 7] | 233 to 234 °C |  |
| O=C(NC(=O)c1cccc(-c2noc(-c3ccccc3F)n2)c1)OCCN1CCOCC1 [Compound 12] | 223 to 224 °C |  |
| O=C(NC(=O)c1cccc(-c2noc(-c3ccccc3F)n2)c1)Oc1cccc2c1CCCC2 [Compound 23] | 199 to 202 °C |  |
| CC(C)OC(=O)NC(=O)c1cccc(-c2noc(-c3ccccc3F)n2)c1 [Compound 3] | 172 to 174 °C |  |
| COCCOC(=O)NC(=O)c1cccc(-c2noc(-c3ccccc3F)n2)c1 [Compound 21] | 139 to 141 °C |  |
| O=C(NC(=O)c1cccc(-c2noc(-c3ccccc3F)n2)c1)OC1CCCC1 [Compound 22] | 187 to 190 °C |  |
| O=C(NC(=O)c1cccc(-c2noc(-c3ccccc3F)n2)c1)OCc1ccccc1 [Compound 19] | 133 to 134 °C |  |
| O=C(NC(=O)c1cccc(-c2noc(-c3ccccc3F)n2)c1)OCCc1ccccc1 [Compound 16] | 129 to 130 °C |  |
| Cc1ccc(S(=O)(=O)NC(=O)NC(=O)c2cccc(-c3noc(-c4ccccc4F)n3)c2)cc1 [Compound 15] | 188 to 191 °C |  |
| O=C(NC(=O)c1cccc(-c2noc(-c3ccccc3F)n2)c1)Oc1ccccc1 [Compound 10] | 252 to 254 °C |  |
| O=C(NC(=O)c1cccc(-c2noc(-c3ccccc3F)n2)c1)NC1CC1 [Compound 4] | 226 to 227.5 °C |  |
| gentamicin |  | approximately 7% |
| O=C(NC(=O)c1cccc(-c2noc(-c3ccccc3F)n2)c1)OC1CCCCC1 [Compound 17] | 172 to 174 °C |  |
| NC(=O)NC(=O)c1cccc(-c2noc(-c3ccccc3F)n2)c1 [Compound 6] | 240 °C |  |
| CCCOC(=O)NC(=O)c1cccc(-c2noc(-c3ccccc3F)n2)c1 [Compound 20] | 152 to 155 °C |  |
| O=C(NC(=O)c1cccc(-c2noc(-c3ccccc3F)n2)c1)OCC1CCCCC1 [Compound 18] | 134 to 138 °C |  |

Second part, led by results:

| melting point | Molecule | TPP-I restored, of normal levels [1] |
| --- | --- | --- |
| 141 to 143 °C | COCC(C)OC(=O)NC(=O)c1cccc(-c2noc(-c3ccccc3F)n2)c1 (centres unmarked) [Compound 34] |  |
| 132 to 134 °C | O=C(NC(=O)c1cccc(-c2noc(-c3ccccc3F)n2)c1)OC1CCN(Cc2ccccc2)CC1 [Compound 42] |  |
| 119 to 120 °C | O=C(NC(=O)C(F)(F)F)c1cccc(-c2noc(-c3ccccc3F)n2)c1 [Compound 47] |  |
| 116 to 118 °C | CC(OC(=O)NC(=O)c1cccc(-c2noc(-c3ccccc3F)n2)c1)c1ccc(F)cc1 (centres unmarked) [Compound 51] |  |
| 165 to 168 °C | O=C(NC(=O)c1cccc(-c2noc(-c3ccccc3F)n2)c1)OC1Cc2ccccc2C1 [Compound 36] |  |
| 161 to 163 °C | CCN(CC)C(=O)NC(=O)c1cccc(-c2noc(-c3ccccc3F)n2)c1 [Compound 26] |  |
| 152 to 156 °C | O=C(NC(=O)c1cccc(-c2noc(-c3ccccc3F)n2)c1)O[C@@H]1CCOC1 [Compound 49] |  |
| 247 to 250 °C | Cc1cc(C)cc(NC(=O)NC(=O)c2cccc(-c3noc(-c4ccccc4F)n3)c2)c1 [Compound 27] |  |
| 170 to 173 °C | CC(OC(=O)NC(=O)c1cccc(-c2noc(-c3ccccc3F)n2)c1)C(C)(C)C (racemic) [Compound 37, (±)-{3-[5-(2-Fluorophenyl)-[1,2,4]oxadiazol-3-yl]benzoyl}carbamic Acid 1,2,2-trimethylpropyl Ester] |  |
| 178 to 180 °C | O=C(NC(=O)N1CCCC1)c1cccc(-c2noc(-c3ccccc3F)n2)c1 [Compound 24] |  |
| 108 to 109 °C | CC(C)CC(C)OC(=O)NC(=O)c1cccc(-c2noc(-c3ccccc3F)n2)c1 (centres unmarked) [Compound 39] |  |
| 150 to 152 °C | CC(OC(=O)NC(=O)c1cccc(-c2noc(-c3ccccc3F)n2)c1)C1CC1 (centres unmarked) [Compound 31] |  |
| 140 to 141 °C | CC(OC(=O)NC(=O)c1cccc(-c2noc(-c3ccccc3F)n2)c1)c1ccccc1 (centres unmarked) [Compound 30] |  |
| 168 to 170 °C | O=C(NC(=O)c1cccc(-c2noc(-c3ccccc3F)n2)c1)OC1CCCc2ccccc21 (centres unmarked) [Compound 32] |  |
| 120 to 123 °C | CN1C(=O)C[C@H](OC(=O)NC(=O)c2cccc(-c3noc(-c4ccccc4F)n3)c2)C1=O [Compound 43] |  |
| 119 to 120 °C | CC(=O)NC(=O)c1cccc(-c2noc(-c3ccccc3F)n2)c1 [Compound 45, N-Acetyl-3-[5-(2-fluorophenyl)-[1,2,4]oxadiazol-3-yl]benzamide] |  |
| 161 to 163 °C | CC(OC(=O)NC(=O)c1cccc(-c2noc(-c3ccccc3F)n2)c1)c1ccc(C(F)(F)F)cc1 (centres unmarked) [Compound 40] |  |
| 193 to 196 °C | C[C@@H](OC(=O)NC(=O)c1cccc(-c2noc(-c3ccccc3F)n2)c1)C(N)=O [Compound 44] |  |
| 180 to 183 °C | CC(OC(=O)NC(=O)c1cccc(-c2noc(-c3ccccc3F)n2)c1)c1ccncc1 (centres unmarked) [Compound 48] |  |
| 168 to 170 °C | CC(C)C(C)OC(=O)NC(=O)c1cccc(-c2noc(-c3ccccc3F)n2)c1 (centres unmarked) [Compound 38] |  |
| 197 to 200 °C | O=C(NC(=O)c1cccc(-c2noc(-c3ccccc3F)n2)c1)OC1CCOC1 (centres unmarked) [Compound 35] |  |
| 190 to 194 °C | O=C(NC(=O)N1CCOCC1)c1cccc(-c2noc(-c3ccccc3F)n2)c1 [Compound 25, Morpholine-4-carboxylic Acid 3-[5-(2-fluorophenyl)-[1,2,4]oxadiazol-3-yl]benzoylamide] |  |
| 164 to 165 °C | O=C(NC(=O)c1cccc(-c2noc(-c3ccccc3F)n2)c1)OC(c1ccccc1)C(F)(F)F (centres unmarked) [Compound 33] |  |
| 169 to 173 °C | O=C(NC(=O)N1CCN(c2ccccc2)CC1)c1cccc(-c2noc(-c3ccccc3F)n2)c1 [Compound 28] |  |
| 183 to 184 °C | CC(C)C(=O)NC(=O)c1cccc(-c2noc(-c3ccccc3F)n2)c1 [Compound 46, 3-[5-(2-Fluorophenyl)-[1,2,4]oxadiazol-3-yl]-N-isobutyrl-benzamide] |  |
